# Measured values: patent US7598382B2, “Aryl substituted imidazoquinolines” (Coley Pharmaceutical Group, Inc., priority 2002, dated 2009)
# Structures can show the parent of a compound that is named as a salt.
row,SMILES,melting point [°C]
1,"CCOCc1nc2c(N)nc3cc(-c4cccc(CO)c4)ccc3c2n1CCCCN1CCCS1(=O)=O [Example 156, (5-{4-Amino-1-[4-(1,1-dioxidoisothiazolidin-2-yl)butyl]-2-ethoxymethyl-1H-imidazo[4,5-c]quinolin-7-yl}phenyl)methanol]",158 to 161
2,"CCOCc1nc2c(N)nc3cc(-c4cccnc4)ccc3c2n1CC1CCN(C(=O)N2CCOCC2)CC1 (hydrate or solvate) [Example 180, 2-Ethoxymethyl-1-{[1-(morpholin-4-ylcarbonyl)piperidin-4-yl]methyl}-7-(pyridin-3-yl)-1H-imidazo[4,5-c]quinolin-4-amine]",224 to 225
3,"CCOCc1nc2c(N)nc3cc(-c4cccnc4)ccc3c2n1CCCCCS(=O)(=O)N(C)C [Example 370, Dimethyl 5-[4-amino-2-ethoxymethyl-7-(pyridin-3-yl)-1H-imidazo[4,5-c]quinolin-1-yl]pentane-1-sulfonamide]",159 to 160
4,"COCCc1nc2c(N)nc3cc(-c4ccccc4)ccc3c2n1CCCN1CCCC1=O [Example 206, 1-{3-[4-Amino-2-(2-methoxyethyl)-7-phenyl-1H-imidazo[4,5-c]quinolin-1-yl]propyl}pyrrolidin-2-one]",187 to 191
5,"CC(C)Cn1cnc2c(N)nc3ccc(C=Cc4ccccc4)cc3c21 [Example 122, 1-(2-Methylpropyl)-8-styryl-1H-imidazo[4,5-c]quinolin-4-amine]",228 to 230
6,"CCOCc1nc2c(N)nc3ccc(CCc4ccccc4)cc3c2n1CC(C)(C)O [Example 151, 1-(4-Amino-2-ethoxymethyl-8-phenethyl-1H-imidazo[4,5-c]quinolin-1-yl)-2-methylpropan-2-ol]",175 to 176
7,"COCCc1nc2c(N)nc3cc(-c4cccnc4)ccc3c2n1CC(C)(C)O [Example 138, 1-[4-Amino-2-(2-methoxyethyl)-7-(pyridin-3-yl)-1H-imidazo[4,5-c]quinolin-1-yl]-2-methylpropan-2-ol]",158 to 160
8,"CCOCc1nc2c(N)nc3cc(-c4cccnc4)ccc3c2n1CCN1CCN(C(=O)C(C)C)CC1 (hydrate or solvate) [Example 416, 1-(4-{2-[4-Amino-2-ethoxymethyl-7-(pyridin-3-yl)-1H-imidazo[4,5-c]quinolin-1-yl]ethyl}piperazin-1-yl)-2-methylpropan-1-one]",190 to 192
9,"CCOCc1nc2c(N)nc3cc(-c4cncc(CO)c4)ccc3c2n1CCCOC [Example 167, 2-Ethoxymethyl-1-(3-methoxypropyl)-7-(5-hydroxymethylpyridin-3-yl)-1H-imidazo[4,5-c]quinolin-4-amine]",198 to 199
10,"COc1ccc(Cc2nc3c(N)nc4cc(-c5ccccc5)ccc4c3n2CCOc2ccccc2)cc1 [Example 198, 2-(4-Methoxybenzyl)-1-(2-phenoxyethyl)-7-phenyl-1H-imidazo[4,5-c]quinolin-4-amine]",197 to 198
11,"CCCCc1nc2c(N)nc3cc(-c4ccc(OC)cc4OC)ccc3c2n1CC(C)C [Example 3, 2-Butyl-7-(2,4-dimethoxyphenyl)-1-isobutyl-1H-imidazo[4,5-c]quinolin-4-amine]",187 to 189
12,"CCOCc1nc2c(N)nc3cc(-c4ccccc4)ccc3c2n1CC1CCN(C(=O)N2CCOCC2)CC1 [Example 195, 2-Ethoxymethyl-1-{[1-(morpholin-4-ylcarbonyl)piperidin-4-yl]methyl}-7-phenyl-1H-imidazo[4,5-c]quinolin-4-amine]",208 to 209
13,"CCCCc1nc2c(N)nc3cc(-c4ccccc4)ccc3c2n1CCCS(C)(=O)=O [Example 10, 2-Butyl-1-(3-methanesulfonylpropyl)-7-phenyl-1H-imidazo[4,5-c]quinolin-4-amine]",214 to 216
14,"CCOCc1nc2c(N)nc3cc(-c4ccco4)ccc3c2n1CCCOC [Example 168, 2-Ethoxymethyl-7-(furan-2-yl)-1-(3-methoxypropyl)-1H-imidazo[4,5-c]quinolin-4-amine]",144 to 145
15,"CCOCc1nc2c(N)nc3cc(-c4ccccc4)ccc3c2n1CC(C)(C)NC(=O)NC1CCCCC1 [Example 203, N-[2-(4-Amino-2-ethoxymethyl-7-phenyl-1H-imidazo[4,5-c]quinolin-1-yl)-1,1-dimethylethyl]-N′-cyclohexylurea]",152 to 156
16,"CCCc1nc2c(N)nc3cc(CCc4cccc(S(N)(=O)=O)c4)ccc3c2n1CC(C)C [Example 456, 3-{2-[4-Amino-1-(2-methylpropyl)-2-propyl-1H-imidazo[4,5-c]quinolin-7-yl]ethyl}benzenesulfonamide]",250 to 251
17,"CCCOc1ccccc1-c1ccc2c(c1)nc(N)c1nc(COCC)n(CC(C)C)c12 [Example 109, 2-Ethoxymethyl-1-(2-methylpropyl)-7-(2-propoxyphenyl)-1H-imidazo[4,5-c]quinolin-4-amine]",168 to 169
18,"CCOCc1nc2c(N)nc3cc(-c4cccnc4)ccc3c2n1CC(O)CO (centres unmarked) [Example 162, 3-[4-Amino-2-ethoxymethyl-7-(pyridin-3-yl)-1H-imidazo[4,5-c]quinolin-1-yl]propane-1,2-diol]",218 to 220

row,SMILES,melting point [°C]
1,"COCCc1nc2c(N)nc3cc(-c4ccccc4)ccc3c2n1CC(C)(C)O [Example 136, 1-[4-Amino-2-(2-methoxyethyl)-7-phenyl-1H-imidazo[4,5-c]quinolin-1-yl]-2-methylpropan-2-ol]",226 to 227
2,"CCOCc1nc2c(N)nc3cc(-c4cccnc4)ccc3c2n1CCNS(C)(=O)=O [Example 387, N-{2-[4-Amino-2-ethoxymethyl-7-(pyridin-3-yl)-1H-imidazo[4,5-c]quinolin-1-yl]ethyl}methanesulfonamide]",233 to 235
3,"CCOCc1nc2c(N)nc3cc(-c4ccccc4)ccc3c2n1CC(C)C [Example 108, 2-Ethoxymethyl-1-(2-methylpropyl)-7-phenyl-1H-imidazo[4,5-c]quinolin-4-amine]",176.5 to 178
4,"CCCS(=O)(=O)NCCCCn1c(COCC)nc2c(N)nc3cc(-c4cccnc4)ccc3c21 [Example 376, N-{4-[4-Amino-2-ethoxymethyl-7-(pyridin-3-yl)-1H-imidazo[4,5-c]quinolin-1-yl]butyl}propane-1-sulfonamide]",178 to 180
5,"CCCC(=O)NCCCCn1c(COCC)nc2c(N)nc3cc(-c4cccnc4)ccc3c21 [Example 372, N-{4-[4-Amino-2-ethoxymethyl-7-(pyridin-3-yl)-1H-imidazo[4,5-c]quinolin-1-yl]butyl}butyramide]",150 to 152
6,"CCOCc1nc2c(N)nc3cc(-c4cccnc4)ccc3c2n1CC1CCN(S(C)(=O)=O)CC1 (as salt: HCl) [Example 178, 2-Ethoxymethyl-1-{[1-(methanesulfonyl)piperidin-4-yl]methyl}-7-(pyridin-3-yl)-1H-imidazo[4,5-c]quinolin-4-amine]",254 to 255
7,"CCOCc1nc2c(N)nc3cc(-c4cccnc4)ccc3c2n1CCCCNC(=O)OC(C)(C)C [Example 157, tert-Butyl {4-[4-amino-2-ethoxymethyl-7-(pyridin-3-yl)-1H-imidazo[4,5-c]quinolin-1-yl]butyl}carbamate]",117 to 119
8,"CC(C)Cn1cnc2c(N)nc3ccc(-c4csc5ccccc45)cc3c21 [Example 121, 8-Benzo[b]thiophen-3-yl-1-(2-methylpropyl)-1H-imidazo[4,5-c]quinolin-4-amine]",247 to 248
9,"CCOCc1nc2c(N)nc3cc(-c4cccc(C(=O)N5CCCC5)c4)ccc3c2n1CC(C)(C)O [Example 129, {3-[4-Amino-2-ethoxymethyl-1-(2-hydroxy-2-methylpropyl)-1H-imidazo[4,5-c]quinolin-7-yl]phenyl}pyrrolidin-1-ylmethanone]",216.5 to 217.5
10,"CCCc1nc2c(N)nc3cc(-c4cccnc4)ccc3c2n1CCCCNC(=O)OC(C)(C)C [Example 158, tert-Butyl {4-[4-amino-2-propyl-7-(pyridin-3-yl)-1H-imidazo[4,5-c]quinolin-1-yl]butyl}carbamate]",136 to 138
11,"CCc1nc2c(N)nc3cc(-c4cccnc4)ccc3c2n1CC1CCN(S(C)(=O)=O)CC1 (hydrate or solvate) [Example 406, 2-Ethyl-1-{[1-(methanesulfonyl)piperidin-4-yl]methyl}-7-(pyridin-3-yl)-1H-imidazo[4,5-c]quinolin-4-amine]",228 to 229
12,"CCCCc1nc2c(N)nc3cc(-c4ccc(OCCC)cc4)ccc3c2n1CC(C)C [Example 5, 2-Butyl-1-isobutyl-7-(4-propoxyphenyl)-1H-imidazo[4,5-c]quinolin-4-amine]",194 to 197
13,"CCOCc1nc2c(N)nc3cc(-c4cncc(OC)c4)ccc3c2n1CC(C)(C)OCCS(C)(=O)=O [Example 364, 2-Ethoxymethyl-1-{2-[2-(methanesulfonyl)ethoxy]-2-methylpropyl}-7-(5-methoxypyridin-3-yl)-1H-imidazo[4,5-c]quinolin-4-amine]",186 to 188
14,"CCCc1nc2c(N)nc3cc(CCc4ccccc4OC)ccc3c2n1CC(C)C (as salt: HCl) [Example 460, 7-[2-(2-Methoxyphenyl)ethyl]-1-(2-methylpropyl)-2-propyl-1H-imidazo[4,5-c]quinolin-4-amine]",> 250
15,"CCCc1nc2c(N)nc3cc(-c4cncc(CO)c4)ccc3c2n1CC(C)(C)O [Example 420, 1-[4-Amino-7-(5-hydroxymethylpyridin-3-yl)-2-propyl-1H-imidazo[4,5-c]quinolin-1-yl]-2-methylpropan-2-ol]",225 to 226
16,"CCOCc1nc2c(N)nc3cc(-c4cccnc4)ccc3c2n1CCCCNS(C)(=O)=O (hydrate or solvate) [Example 375, N-{4-[4-Amino-2-ethoxymethyl-7-(pyridin-3-yl)-1H-imidazo[4,5-c]quinolin-1-yl]butyl}methanesulfonamide]",186 to 188
17,"CCOCc1nc2c(N)nc3cc(-c4cccnc4)ccc3c2n1CCN1CCCS1(=O)=O [Example 389, 1-[2-(1,1-Dioxo-1-isothiazolidin-2-yl)ethyl]-2-ethoxymethyl-7-(pyridin-3-yl)-1H-imidazo[4,5-c]quinolin-4-amine]",244 to 246
